Patent US20080194585A1, “Fungicidal Pyrazine Derivatives” (priority 2005, published 2008)
Marks after values point to notes of the source that are not given here.

Legend:
Plasmopara viticola = assay: Test D: grape downy mildew, spray after inoculation of grape seedlings; assay type: in vivo
Text: Upon removal, disease ratings were made. […] A dash (-) indicates no test results.

Phytophthora infestans = assay: whole plant or invertebrate; assay type: in vivo
[1] = tested on: Puccinia recondita f. sp. tritici; assay: Test K: wheat leaf rust, preventive spray on wheat seedlings
Botrytis cinerea = assay: Test E: tomato botrytis, preventive spray on tomato seedlings
Septoria nodorum = assay: Test H: wheat glum blotch, preventive spray on wheat seedlings
Description: (the causal agent of wheat glum blotch) and incubated in a saturated atmosphere at 20° C. for 48 h, and then moved to a growth chamber at 22° C. for 5 days, after which disease ratings were made.

[2] = tested on: Erysiphe graminis f. sp. tritici; assay: Test L: wheat powdery mildew, preventive spray on wheat seedlings
Septoria tritici = assay: Test J: wheat leaf blotch, preventive spray on wheat seedlings; assay type: in vivo; settings: 40 ppm (marked *); 100 = 100% disease control, 0 = no control
Text: A dash (-) indicates no test results.

Pythium aphanidermatum = assay: Test A: bluegrass pythium blight, preventive spray on bluegrass seedlings; settings: 100 = 100% disease control
Rhizoctonia oryzae = assay: Test G: turf brown patch, preventive spray on creeping bent grass seedlings; settings: 100 = 100% disease control, 0 = no control
Description: (the causal agent of turf brown patch) and incubated in a saturated atmosphere at 27° C. for 24 h, and then moved to a growth chamber at 27° C. for 5 days, after which disease ratings were made.

[3] = tested on: Colletotrichum orbiculare; assay: Test B: cucumber Colletotrichum anthracnose, preventive spray on cucumber seedlings; settings: 100 = 100% disease control
fusarium graminearium = assay: Test I: wheat head scab, preventive spray on wheat seedlings; settings: 200 ppm; 100 = 100% disease control, 0 = no control relative to controls
Description: (the causal agent of wheat head scab) and incubated in a saturated atmosphere at 20° C. for 72 h, and then moved to a growth chamber at 22° C. for 5 days, after which disease ratings were made.

[4] = 40 ppm (marked *), 100 = 100% disease control, 0 = no control
[5] = 40 ppm (marked *), 0 = no control
[6] = 200 ppm, 100 = 100% disease control, 0 = no control relative to controls
[7] = 200 ppm, 0 = no control relative to controls

Row | SMILES | Test D disease control rating (Plasmopara viticola; [4]) | Test F disease control rating (Phytophthora infestans; [4]) | Test J disease control rating (Septoria tritici) | Test K disease control rating [1, 4] | Test E disease control rating (Botrytis cinerea; [4]) | Test H disease control rating (Septoria nodorum; [4]) | Test L disease control rating [2, 4] | Test A disease control rating (Pythium aphanidermatum; [5]) | Test G disease control rating (Rhizoctonia oryzae; 40 ppm (marked *)) | Test B disease control rating [3, 5] | other results
1 | CC(C)Cn1c(-c2ccc(C(F)(F)F)cc2)c(Cl)nc(-n2cccn2)c1=O [compound 36] |  |  |  |  |  |  |  |  |  |  | Test D disease control rating (Plasmopara viticola; 200 ppm): 0%; Test F disease control rating (Phytophthora infestans; 200 ppm): 0%; Test K disease control rating ([1]; 200 ppm): 0%; Test E disease control rating (Botrytis cinerea; 200 ppm): 0%; Test H disease control rating (Septoria nodorum; 200 ppm): 0%; Test L disease control rating ([2]; 200 ppm): 0%
2 | COc1ccc(-c2c(Cl)nc(-n3cccn3)c(=O)n2CC(C)C)cc1 [compound 37] |  |  |  |  |  |  |  |  |  |  | Test D disease control rating (Plasmopara viticola; 200 ppm): 0%; Test F disease control rating (Phytophthora infestans; 200 ppm): 0%; Test K disease control rating ([1]; 200 ppm): 89%; Test E disease control rating (Botrytis cinerea; 200 ppm): 100%; Test H disease control rating (Septoria nodorum; 200 ppm): 100%; Test L disease control rating ([2]; 200 ppm): 0%
3 | CC(C)Cn1c(-c2ccc(OC(F)(F)F)cc2)c(Cl)nc(-n2cccn2)c1=O [compound 38] |  |  |  |  |  |  |  |  |  |  | Test D disease control rating (Plasmopara viticola; 200 ppm): 0%; Test F disease control rating (Phytophthora infestans; 200 ppm): 0%; Test K disease control rating ([1]; 200 ppm): 0%; Test E disease control rating (Botrytis cinerea; 200 ppm): 0%; Test H disease control rating (Septoria nodorum; 200 ppm): 0%; Test L disease control rating ([2]; 200 ppm): 0%
4 | O=c1c(-n2cccn2)nc(Cl)c(-c2c(F)cccc2F)n1Cc1ccccc1F [compound 336] | 0* % | 0* % | 100* % | 100* % | 99* % | 99* % | 98* % | 0* % | 41* % | 0* % | 
5 | Cc1ccn(-c2nc(Cl)c(-c3c(F)cc(F)cc3F)n(-c3ccccc3F)c2=O)n1 [compound 355] | 0* % | 0* % | 100* % | 99* % | 99* % | 100* % | 57* % | 0* % | 66* % | 99* % | 
6 | Cc1ccn(-c2nc(Cl)c(-c3c(F)cc(F)cc3F)n(-c3cccc(F)c3)c2=O)n1 [compound 356] | 0* % | 0* % | 100* % | 100* % | 100* % | 100* % | 100* % | 0* % | 93* % | 99* % | 
7 | Cc1ccn(-c2nc(Cl)c(-c3c(F)ccc(F)c3F)n(-c3ccccc3)c2=O)n1 [compound 358] | 0* % |  | 100* % | 100* % | 99* % | 100* % | 91* % | 0* % | 92* % | 0* % | 
8 | O=c1c(-n2cccn2)nc(Cl)c(-c2c(F)cc(F)cc2F)n1-c1ccc(F)c(F)c1 [compound 365] | 16* % | 0* % | 100* % | 100* % | 98* % | 100* % | 96* % | 0* % | 99* % | 99* % | 
9 | Cc1ccn(-c2nc(Cl)c(-c3c(F)cc(F)cc3F)n(-c3ccc(F)c(F)c3)c2=O)n1 [compound 366] | 0* % | 0* % | 96* % | 100* % | 99* % | 100* % | 93* % | 0* % | 89* % | 99* % | 
10 | O=c1c(-n2cccn2)nc(Cl)c(-c2c(F)cc(F)cc2F)n1-c1cc(F)cc(F)c1 [compound 367] | 0* % | 0* % | 99* % | 100* % | 99* % | 100* % | 99* % | 0* % | 99* % | 100* % | 
11 | Cc1ccn(-c2nc(Cl)c(-c3c(F)cc(F)cc3F)n(-c3cc(F)cc(F)c3)c2=O)n1 [compound 368] | 0* % | 0* % | 100* % | 100* % | 99* % | 100* % | 99* % | 0* % | 99* % | 99* % | 
12 | O=c1c(-n2cccn2)nc(Cl)c(-c2c(F)cc(F)cc2F)n1-c1cccc(F)c1F [compound 369] | 0* % | 0* % | 100* % | 100* % | 99* % | 100* % | 98* % | 0* % | 99* % | 100* % | 
13 | Cc1ccn(-c2nc(Cl)c(-c3c(F)cc(F)cc3F)n(-c3cccc(F)c3F)c2=O)n1 [compound 370] | 0* % | 0* % | 100* % | 100* % | 99* % | 100* % | 96* % | 0* % | 92* % | 100* % | 
14 | O=c1c(-n2cccn2)nc(Cl)c(-c2c(F)cc(F)cc2F)n1-c1ccc(Cl)cc1 [compound 371] | 0* % | 0* % | 100* % | 100* % | 99* % | 100* % | 98* % | 0* % | 99* % | 99* % | 
15 | Cc1ccn(-c2nc(Cl)c(-c3c(F)cc(F)cc3F)n(-c3ccc(Cl)cc3)c2=O)n1 [compound 372] | 0* % | 0* % | 100* % | 100* % | 99* % | 100* % |  | 0* % |  | 100* % | Test L disease control rating ([2]; 200 ppm, 100 = 100% disease control, 0 = no control): 98%; Test G disease control rating (Rhizoctonia oryzae; 200 ppm): 82%
16 | C#CCNC(=O)c1nc(Cl)c(-c2c(F)cc(F)cc2F)n(CC(C)CC)c1=O (centres unmarked) [compound 416] |  |  |  |  |  |  |  |  |  |  | Test I disease control rating (fusarium graminearium): 0%; Test K disease control rating [1, 6]: 100%; Test E disease control rating (Botrytis cinerea; [6]): 99%; Test H disease control rating (Septoria nodorum; [6]): 100%; Test L disease control rating [2, 6]: 99%; Test B disease control rating [3, 7]: 99%
17 | NC(=O)c1nc(Cl)c(-c2c(F)ccc(F)c2F)n(-c2ccccc2)c1=O [compound 419] |  |  |  | 100* % | 97* % | 94* % | 0* % |  | 0* % |  | Test D disease control rating (Plasmopara viticola; [6]): 32%; Test F disease control rating (Phytophthora infestans; [6]): 95%; Test I disease control rating (fusarium graminearium): 73%; Test A disease control rating (Pythium aphanidermatum; [7]): 100%
18 | NC(=O)c1nc(Cl)c(-c2c(F)cc(F)cc2F)n(-c2ccccc2)c1=O [compound 420] |  |  |  | 100* % | 94* % | 96* % | 41* % |  | 0* % |  | Test D disease control rating (Plasmopara viticola; [6]): 31%; Test F disease control rating (Phytophthora infestans; [6]): 100%; Test I disease control rating (fusarium graminearium): 60%; Test A disease control rating (Pythium aphanidermatum; [7]): 98%
